Measurements: publication PMC7504721, “Targeting the Initiator Protease of the Classical Pathway of Complement Using Fragment-Based Drug Discovery” (Molecules, 2020)

Assays:
[1] = system: C1r; parameters: method as in PMID 10206542; conditions: cited from earlier work
[2] = target: T1, C1r proenzyme (Homo sapiens, UniProt P00736); experiment: C1r proenzyme activation (autoactivation) assay with Z-Gly-Arg-sBzl substrate; type: biochemical; conditions: 10 mM compound, 37 °C, 1 h
T1 construct: purchased Complement Technology (CompTech)
T1 sequence (P00736 18-705): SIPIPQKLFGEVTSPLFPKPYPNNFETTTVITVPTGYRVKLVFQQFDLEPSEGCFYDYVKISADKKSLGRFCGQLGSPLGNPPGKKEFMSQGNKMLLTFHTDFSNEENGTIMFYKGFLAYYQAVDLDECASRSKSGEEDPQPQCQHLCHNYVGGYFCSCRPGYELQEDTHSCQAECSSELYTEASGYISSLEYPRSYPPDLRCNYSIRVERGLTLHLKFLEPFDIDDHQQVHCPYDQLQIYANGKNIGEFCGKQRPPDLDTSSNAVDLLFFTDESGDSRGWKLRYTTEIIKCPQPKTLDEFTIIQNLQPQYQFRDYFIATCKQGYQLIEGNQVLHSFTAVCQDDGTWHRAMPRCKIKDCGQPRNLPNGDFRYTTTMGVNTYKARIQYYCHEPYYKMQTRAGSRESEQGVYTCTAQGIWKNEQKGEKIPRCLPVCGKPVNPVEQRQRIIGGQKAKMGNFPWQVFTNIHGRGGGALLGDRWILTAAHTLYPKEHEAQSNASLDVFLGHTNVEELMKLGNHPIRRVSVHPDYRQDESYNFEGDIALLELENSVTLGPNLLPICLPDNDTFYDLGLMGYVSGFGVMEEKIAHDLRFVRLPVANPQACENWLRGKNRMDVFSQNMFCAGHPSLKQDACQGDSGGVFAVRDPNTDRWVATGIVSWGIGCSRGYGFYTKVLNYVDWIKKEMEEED
Description: Figure 6 CMP-1696 structure activity relationship. (A) CMP-1696 was redocked onto C1r-CCP2-SP (PDB: 1MD8, grey surface representation) and the top nine scored poses are shown. All CMP-1696 poses dock into the S1 subsite (cyan) near the catalytic triad (blue). (B) C1r autoactivation assay. C1r proenzyme undergoes time-dependent autoactivation at 37 °C. Autoactivation was measured using a synthetic substrate for C1r enzyme. The reaction progress of vehicle control (dashed line) or in the presence of 10 mM CMP-1696 (solid line) was monitored for 1 h. (C) Molecular dynamics (MD) simulations of CMP-1696/C1r-CCP2-SP. Root mean square deviation (RMSD) in nm for each of the CMP-1696 poses measured over the 10 ns molecular dynamics simulation. (D) MM/PBSA energy calculations for each pose in the 10 ns MD simulations indicate that pose 1 is the most energetically favorable. […]
Individual stock solutions of 1 mM of Z-Gly-Arg-sBzl (MP Biomedicals, Irvine, CA, USA) and 5,5′-Dithiobis-(2-nitrobenzoic acid) (DTNB) (Sigma-Aldrich, St. Louis, MO, USA) were made by dissolving powder in DMSO to give 10 mM stocks of each compound, which were then diluted to 1 mM in assay buffer (20 mM HEPES pH 7.3, 140 mM NaCl, 0.005% (v/v) Tween-20, 2 mM CaCl2). […] Plates were read at 450 nm using an EnSight multimode plate reader (Perkin-Elmer, Waltham, MA, USA) and the reaction progress was tracked for 1 h.

SMILES | inhibition of C1r [1] | inhibition of autocatalysis of C1r proenzyme [2]
N=C(N)c1ccc2cc(OC(=O)c3ccc(N=C(N)N)cc3)ccc2c1 [Futhan, reference compound] | previously reported to inhibit C1r | 
COCc1nc(-c2ccc(OC3CNC3)cc2)no1 [CMP-1696] |  | directly inhibited
